ChEMBL document CHEMBL3507680, “University of Dundee, Gates Library screen for HepG2 cell viability”

assay: Human HepG2 cell viability assay in 384 well format; assay type: toxicity, cell-based; set-up: dose 125 nL, time 70.5 hour; concentration not given beside the values; conditions: HepG2 cells, read-out: Inhibition

Row | Compound | cytotoxicity at 70.5 h
1 | CC(C)(C(=O)NCCCC(N)=O)c1cccc(Br)c1 | -8.19%
2 | CN(C)S(=O)(=O)c1ccc(CSCC(=O)NC(C)(C)C)o1 | -8.48%
3 | CN(C)S(=O)(=O)N1CC[C@]2(C[C@@H](Oc3cccnc3)CO2)C1 | -5.96%
4 | O=C(NCCn1nc(-n2cncn2)ccc1=O)c1ccccc1Br | -5.84%
5 | Cn1ccc(C(=O)NC2CCC23CCN(C(=O)N2CCCC2)CC3)c1 (stereo unspecified) | -1.08%
6 | CN(C)C(=O)N1CCN(C)c2ncccc2C1 | -7.19%
7 | CC(c1nc(C(C)(C)C)no1)N1CCN(c2ccc(C#N)cn2)CC1 (stereo unspecified) | -13.9%
8 | Cc1ccc(CNCC2Cn3nncc3CO2)o1 (stereo unspecified) | -3.52%
9 | O=C(NCc1cccnc1)Nc1ccn(CC(F)F)n1 | -3.22%
10 | CN1CCN(Cc2ccncc2)C(=O)C12CCN(Cc1ccsc1)CC2 | 2.26%
11 | CC(C)c1nn(C)c(Cl)c1CNCC(=O)N1CCN(C)CC1 | -4.93%
12 | Cc1nn(CC(=O)N2CCN(c3ccccc3F)CC2)c(C)c1Cl | -2.28%
13 | CC(C(=O)N1CCCCC1)N1CCN(c2nccs2)CC1 (stereo unspecified) | 2.12%
14 | COc1c(CNCCNC(=O)c2ccc(C)cc2)c(C)nn1C | 8.52%
15 | CCC(O)CNc1ccc(-c2nc(CC(C)C)no2)cn1 (stereo unspecified) | -14.3%
16 | O=C(Cc1noc(C(=O)NCCO)n1)Nc1cccc(C(F)(F)F)c1 | -22.4%
17 | O=C(Cn1cccn1)N1CCc2[nH]nc(-c3ccc4c(c3)OCO4)c2C1 | -7.87%
18 | COCCN1CCc2c(c(COc3cccnc3)nn2C)C1 | -8.79%
19 | O=C(OCC1CCCN(C(=O)c2ccccc2)C1)c1cscn1 (stereo unspecified) | -88.6%
20 | CO[C@H]1CCN(S(=O)(=O)c2cn(C)cn2)[C@H]1Cc1ccncc1 | -0.309%
21 | CC(C)N(C)CC(=O)Nc1ccc(-n2ccc(C(N)=O)n2)cc1 | -2.55%

Row | Compound | cytotoxicity at 70.5 h
22 | Cn1cncc1CN1CCOC(Cc2ccccc2)C1 (stereo unspecified) | -8.78%
23 | CC(C)C[C@H](N)COc1cccc(F)c1Oc1ccccc1 | 19.1%
24 | O=C(Nc1cnccn1)[C@@H]1COC[C@H]2CN(C3CCCC3)C[C@H]21 | -3.18%
25 | O=c1oc(-c2ccc(F)cc2)nn1CCc1ccccn1 | 2.48%
26 | CN1C(=O)CC(c2cnn(C)c2)C12CCN(C(=O)c1ccc[nH]1)CC2 (stereo unspecified) | -5.07%
27 | COc1cccc(CN(C)C(=O)CSc2ccc3c(c2)OCCO3)c1 | -4.28%
28 | COCc1cccc(CNCc2c(C(C)C)nn(C)c2N(C)C)c1 | -7.7%
29 | CCCN(CC1CC1)C(=O)CN1CCCC1c1cnn(C)c1 (stereo unspecified) | -10.4%
30 | Cc1nc(N2CCCC2)nc2c1CCN(C(=O)NC(C)C)CC2 | 30.9%
31 | Cc1ncc(CNC(=O)Cc2ccsc2)c(C2CCCN2C)n1 (stereo unspecified) | -5.12%
32 | Cc1cnc(CN(C)C2CCN(CC(=O)Nc3nccs3)C2)o1 (stereo unspecified) | -5.94%
33 | Cn1ncc(NC(=O)Cn2ccc(-c3ccc(F)cc3)n2)n1 | 0.148%
34 | CC1(C)CNC(=O)CN(C(=O)Cc2ccccc2)C1 | 0.101%
35 | Cc1nc(N)cc(NCc2csc(N(C)C)n2)n1 | -4.3%
36 | COc1cc(CCC(=O)NC2CC2)ccc1OCC(F)(F)F | -15.3%
37 | Cc1ccc(N2CC[C@H](OCC3CC3)[C@@H]2Cc2ccncc2)nn1 | -4.81%
38 | Cc1n[nH]c(C2CN(C(=O)CCc3ccsc3)CCO2)n1 (stereo unspecified) | -5.2%
39 | CN(Cc1ccccc1)CC(O)Cn1cnc2ccc(Br)cc2c1=O (stereo unspecified) | -5.18%
40 | CN(Cc1cc(=O)c(O)co1)C1CCN(c2ccc(F)cc2)CC1 | 22.1%
41 | O=C(c1ccco1)N1CCC2(CCCN(c3ncccn3)C2)C1 (stereo unspecified) | 11%
42 | COc1ccc(C2CCCN2S(=O)(=O)N(C)CC(C)C)cc1 (stereo unspecified) | -1.91%

Row | Compound | cytotoxicity at 70.5 h
43 | O=S(=O)(NC[C@H]1C[C@@H]2CCN1C[C@@H]2CN1CCOCC1)c1ccccc1 | -0.151%
44 | O=C(NCc1cccnc1)c1nc2c(s1)CCCN2c1ncccn1 | 5.15%
45 | CN(C)Cc1cn2c(n1)CN(CC1CCCC1)CC2 | -6.79%
46 | Cn1cccc1C(=O)N1CC[C@H]2[C@H]1CCN2CC1CC1 | -0.69%
47 | CN(C)C(=O)CN1C(=O)CCC12CCN(Cc1ccc(F)cc1)CC2 | 5.3%
48 | Cn1c(Cn2ccnc2)nnc1C1CCCN(CC(C)(C)C)C1 (stereo unspecified) | -8.29%
49 | CCCn1cnnc1CNCc1c[nH]nc1-c1ccc(F)cc1 | -1.41%
50 | Cc1ccc(C(=O)NS(C)(=O)=O)cc1S(C)(=O)=O | 3.46%
51 | CC(C)OCCC(=O)N(C)c1ccc(F)c(Cl)c1 | -4.66%
52 | CS(=O)(=O)NCc1nnc2n1CCN(CC1CC1)C2 | -6.05%
53 | O=S1(=O)NCC2(CCCN(Cc3ccccn3)C2)Oc2ncccc21 (stereo unspecified) | 30.8%
54 | COc1cccc(C(C(=O)O)N(C)Cc2ccc(C)o2)c1 (stereo unspecified) | -0.112%
55 | CN1CCN2CCN(Cc3cnc(NCc4ccccc4)nc3)CC2C1 (stereo unspecified) | 24%
56 | CS(=O)(=O)NC[C@@H]1OC[C@H]2CN(Cc3ccsc3)CC[C@H]21 | 18.6%
57 | O=C(Nc1cccc(F)c1)C1CCN(Cc2noc(C3CC3)n2)CC1 | -13.9%
58 | CNC(=O)NC(=O)CCN1CCN(c2ccc(C(=O)OC)cc2)CC1C (stereo unspecified) | -9.55%
59 | COCCN(Cc1cccs1)c1nc(CCN)nc2ccccc12 | -9.93%
60 | COc1ccc(C)cc1NC(=O)CNc1ccn(CC(N)=O)n1 | -9.21%
61 | CN1CCC(N(CCc2ccccc2)C(=O)c2ccc(C#N)nc2)CC1 | -3.27%
62 | COc1ccc(-c2cc(C(=O)Nc3nc[nH]n3)[nH]n2)cc1 | -12.1%
63 | Cc1ccc(F)cc1C(=O)N1CCOCC12CCCC2 | -5.21%

Row | Compound | cytotoxicity at 70.5 h
64 | Nc1nccc(-c2cccc3ccnn23)n1 | -1.89%
65 | COc1c(CNCc2cccc(Cn3cncn3)c2)c(C)nn1C | -0.463%
66 | O=C(CCC(=O)N1CCCC1c1ccsc1)N1CCOCC1 (stereo unspecified) | -5.51%
67 | Cc1nnc2n1CCN(C(=O)c1cn(-c3ccccc3Cl)nn1)C2 | -9.21%
68 | CCCn1nccc1NC(=O)c1ccc(Cl)c(N2CCNC2=O)c1 | -2.55%
69 | CC(C)NC(=O)C[C@@H]1CCNC[C@@H]1Cc1cc(-c2ccccc2)on1 | -1.73%
70 | CCOCC1CCN(C(=O)Nc2ccc3c(c2)CCCO3)C1 (stereo unspecified) | 17.3%
71 | CCC(CC)NC(=O)c1cccnc1N1CCCC1c1ccccn1 (stereo unspecified) | 16.4%
72 | CCCc1cc(C(=O)NC(C)c2ccccc2)n(C)n1 (stereo unspecified) | -2.33%
73 | CN(C)C(=O)COCc1cncc2c1CCN(Cc1ccccc1)C2 | -3.3%
74 | Cc1nc(CN2CCO[C@@H]3CN(C(=O)NC(C)C)CC[C@@H]3C2)cs1 | -6.02%
75 | CCc1cc(N[C@H](C(N)=O)C(C)C)n2nc(C)c(C)c2n1 | -6.29%
76 | Cc1cnn(CC2CN(Cc3noc(C4CC4)n3)CCO2)c1 (stereo unspecified) | -13.6%
77 | COc1ccc(S(=O)(=O)N2CCOC[C@H](Oc3cnccn3)C2)cc1 | -0.146%
78 | CC(=O)N1CCCCC12CCCN(Cc1ccco1)C2 (stereo unspecified) | -14.9%
79 | CS(=O)(=O)N1CC2(CCCN2Cc2ccc(Cl)cc2)Cc2ccccc21 (stereo unspecified) | 7.7%
80 | O=C(NC1CC1)[C@H]1[C@@H]2CN(Cc3ccc(-c4ccn[nH]4)s3)C[C@@H]21 | 0.292%
81 | O=C1CCc2cc(S(=O)(=O)NC(=O)c3ccc4c(c3)CCO4)ccc2N1 | -1.87%
